Each structure is given as a SMILES string. Converted amounts (≈) assume the structure as drawn.

One test deals with A-549 lung cancer cells. Briefly: In vitro antitumor activity, A-549 lung. The settings on record: Homo sapiens, A549. The test is classed as cell-based. The text has this: (§1) 1) in vitro tumor cell viability assays using MTT and SRB dye reaction endpoints.
(§2) Sulforhodamine B (SRB) Assay for Adherent Tumor Cells
(§3) Sulforhodamine B (SRB) is a protein binding aminoxanthene dye with two sulfonic acid groups. (Lillie, R. D., H. J. Conn's Biological Stains, 9th Ed., Baltimore; Williams & Wilkins, 1977.) It quantitates whole cell protein content by the intensity of dye staining and relates this to the number of viable cells. […] The SRB assay is used for cells which normally adhere to surfaces (in this case plastic culture flasks or petri dishes) as part of their requirement for growth and division in vitro. The SRB assay is currently used by the National Cancer Institute in the anticancer drug screening program. (Skehan, et al., J Natl Cancer Inst 82:1107-1112, 1990; Rubinstein, et al., J Natl Cancer Inst 82:1113-1118, 1990.) Methodologic comparisons have shown that SRB results are linear for the number of tumor cells over a 100-fold range, and for protein content determined by a modified Lowry method or Standard Bradford (Bradford, M., Anal Biochem 72:248-254, 1976) methods. […] (Lillie, R. D., H. J. Conn's Biological Stains, 9th Ed., Baltimore; Williams & Wilkins, 1977.)
(§4) Cell cultures of 10^3 -10^7 cells growing in 96-well plastic microtiter plates are fixed with 50% trichloroacetic acid (TCA) for 30 minutes at 4° C. The cells are then stained with 0.4% (w/v) sulforhodamine B (SRB) dissolved in 1% acetic acid. Unbound dye is removed by 4 washes with 1% acetic acid, and protein-bound dye is extracted with 10 mM unbuffered Tris® base [tris(hydroxymethyl)aminomethane]. The optical density (OD) of this extracted solution is measured at […] in a microtiter plate ultraviolet absorbance detector. Cell viability is expressed as percent of control by dividing the optical densities and multiplying the result by 100.
(§5) Microculture Tetrazolium (MTT) Assay for Tumor Cells
(§6) Tumors are disaggregated into single cell suspensions using mechanical, hypoosmotic, and/or enzymatic (trypsin) methods. The cells are plated at a concentration of 3-5×10^4 per […] well into plastic 96-well plates. Growth medium containing 5-10% (vol/vol) heat-inactivated fetal bovine serum and penicillin/streptomycin (both […]) are added prior to incubation at 37° C. for 6 days. Afterwards the medium containing the drug is removed, the cells are centrifuged in fresh medium or phosphate-buffered saline (pH 7.4). A tetrazolium dye, […]-2,5-diphenyl tetrazolium (MTT), is then added. (Mossman, T., J Immunol 65:55-63, 1983.) This dye forms a colored formazan product upon activation by mitochondrial reductases in viable cells. Typically, the formazan product is solubilized in acid-propanol or DMSO. The intensity of the color is proportional to viable cell numbers and this is quantitated by spectrophotometric absorbance at 570 nm on a micro ELISA plate reader. The results are calibrated in % control absorbance from untreated tumor cells. (Alley, et al., Cancer Res 48:589-601, 1988.)
(§7) Table 3 gives the potencies of the new aziridine-1-carboxamides in a panel of human and murine tumor cells in culture. The tumor cell lines in this table are selected to represent a range of histological and growth phenotypes. Their characteristics are described below.
3.0 A-549 Human Lung Cancer is an adenocarcinoma type of non-small cell lung cancer (NSCLC). It was established by Girard, et al. from a fresh tumor specimen obtained from a person with advanced lung cancer. (Girard, et al., J Natl Cancer Inst 51(5):1417-1423, 1973.) It has 5.6% plating efficiency (colony formation) on agar-coated plates, 66 modal chromosome number and grows rapidly when injected subcutaneously, forming acinar pattern tumors in immunodeficient mice. […]

A further test has as its system MCF-7/D40 cells. Description: In vitro antitumor activity, MCF-7/D40. Format: cell-based. The settings on record: Homo sapiens, MCF7; MCF-7 breast, D40 (40-fold doxorubicin resistant).
Text: as §1, §2, §3, §4, §5, §6, §7
(§8) 1.3 MCF-7/D40 and MCF-7/MITOX cell lines were developed by chronic exposure in vitro to increasing concentrations of the DNA-intercalating antitumor agents doxorubicin and mitoxantrone, respectively. […] The MCF-7/D40 cells express the cell membrane efflux pump, P-glycoprotein and are over 40-fold resistant to doxorubicin, mitoxantrone and the vinca alkaloids, vinblastine and vincristine.

The test system of a further test is MCF-7/MITOX cells. Briefly: In vitro antitumor activity, MCF-7/MITOX. Format: cell-based. The settings on record: Homo sapiens, MCF7/Mitox; MCF-7 breast, mitoxantrone resistant.
Text: as §1, §2, §3, §4, §5, §6, §7, §8

For the next test, the system named is WiDr colon cancer cells. Description: In vitro antitumor activity, WiDr colon. The test is classed as cell-based. The settings on record: Homo sapiens.
Text: as §1, §2, §3, §4, §5, §6, §7
2.1 WiDr: The adenocarcinoma cell line WiDr was originally isolated by Noguchi, et al. from a primary colon tumor specimen from a patient with advanced colon carcinoma. (Noguchi, et al, In Vitro 35(6):401-407, 1979.) The WiDr MITOX cell line was developed for mitoxantrone resistance by growth in serially elevated concentration of mitoxantrone. […] (Dalton, et al., Cancer Res 48:1882-1888, 1988.)

In the next test the test system is tumor cell line panel. Briefly: Panel of tumor cell lines in vitro. The test is classed as cell-based, human and murine. The settings on record: all 3 MCF-7 breast lines and parental WiDr colon. The procedure: as §1, §2, §4, §6
Table 3 gives the potencies of the new aziridine-1-carboxamides in a panel of human and murine tumor cells in culture. […]

One may read the IC50 as the concentration at which inhibition is half-maximal. Low values mean greater potency, high ones weaker potency. Turning to `CCOC(=O)c1ccc(NC(=O)N2CC2C#N)cc1` (stereo not shown) [AMP 419, 2-Cyanoaziridine-1-[N-(4-ethoxycarbonylphenyl)]carboxamide], the IC50 in the test with A-549 lung cancer cells stood at 1.5 µg/mL (≈ 5.79 µM).
`CCNC(=O)N1CC1C#N` (stereo not shown) [AMP 406, 2-Cyanoaziridine-1-(N-ethyl)carboxamide]: the IC50 with MCF-7/D40 cells came out at 2.8 µg/mL (≈ 20.1 µM); in the test with MCF-7/MITOX cells, 1.4 µg/mL (≈ 10.1 µM); in the test on WiDr colon cancer cells, 5.6 µg/mL (≈ 40.2 µM); in the test on A-549 lung cancer cells, 2.5 µg/mL (≈ 18 µM).
For `N#CC1CN1C(=O)NC1CCCCC1` (stereo not shown) [AMP 413, 2-Cyanoaziridine-1-(N-cyclohexyl)carboxamide], in that order: 1.7 µg/mL (≈ 8.8 µM), 1.9 µg/mL (≈ 9.83 µM), 0.4 µg/mL (≈ 2.07 µM) and 1.9 µg/mL (≈ 9.83 µM).
Taken in the same sequence, the figures for `CC(C)(C)NC(=O)N1CC1C#N` (stereo not shown) [AMP 410, 2-Cyanoaziridine-1-(N-t-butyl)carboxamide] were 31.8 µg/mL (≈ 190 µM), 20.1 µg/mL (≈ 120 µM), 30 µg/mL (≈ 179 µM) and 33 µg/mL (≈ 197 µM).
Taken in the same sequence, the figures for `N#CC1CN1C(=O)NCc1ccccc1` (stereo not shown) [AMP 412, 2-Cyanoaziridine-1-(N-benzyl)carboxamide] were 1.2 µg/mL (≈ 5.96 µM), 0.7 µg/mL (≈ 3.48 µM), 1.1 µg/mL (≈ 5.47 µM) and 1.5 µg/mL (≈ 7.45 µM).
As to `CNC(=O)N1CC1C#N` (stereo not shown) [AMP 403, 2-Cyanoaziridine-1-(N-methyl)carboxamide], the IC50 with MCF-7/D40 cells stood at 2.1 µg/mL (≈ 16.8 µM); in the test on MCF-7/MITOX cells, 2.3 µg/mL (≈ 18.4 µM).
Take `N#CC1CN1C(=O)Nc1ccc(C(F)(F)F)cc1` (stereo not shown) [AMP 416, 2-Cyanoaziridine-1-[N-(4-trifluorophenyl)]carboxamide]: the 50% inhibitory concentration (IC50) with MCF-7/D40 cells was determined as 0.4 µg/mL (≈ 1.57 µM); in the test with MCF-7/MITOX cells, 0.3 µg/mL (≈ 1.18 µM); with WiDr colon cancer cells, 0.3 µg/mL (≈ 1.18 µM); with A-549 lung cancer cells, 1.1 µg/mL (≈ 4.31 µM). In the test on tumor cell line panel, the “Tumor cell sensitivity in solid tumor lines” value is on record as “tumor cell sensitivity increased”.
Consider `N#CC1CN1C(=O)Nc1ccccc1` (stereo not shown) [AMP 404, 2-Cyanoaziridine-1-(N-phenyl)carboxamide], for which the IC50 in the test on MCF-7/D40 cells amounted to 0.5 µg/mL (≈ 2.67 µM); in the test on MCF-7/MITOX cells it was 0.8 µg/mL (≈ 4.27 µM); in the test on WiDr colon cancer cells it was 0.9 µg/mL (≈ 4.81 µM); in the test with A-549 lung cancer cells, 1.6 µg/mL (≈ 8.55 µM). The “Tumor cell sensitivity in solid tumor lines” value in the test on tumor cell line panel was “tumor cell sensitivity increased”.
Taken in the same sequence, the figures for `N#CC1CN1C(=O)Nc1ccc(F)cc1` (stereo not shown) [AMP 415, 2-Cyanoaziridine-1-[N-(4-fluorophenyl)]carboxamide] were 0.5 µg/mL (≈ 2.44 µM), 0.6 µg/mL (≈ 2.92 µM), 0.4 µg/mL (≈ 1.95 µM), 1.3 µg/mL (≈ 6.34 µM) and “tumor cell sensitivity increased”.

The values above are taken from patent publication US6297230A, “Cyanoaziridines for treating cancer” (priority 2000, dated 2001).
